Test results taken from patent US20220232831A1, “NOVEL NON-CODING HETEROCYCLIC AMINO ACIDS (NCHAA) AND THEIR USE AS HERBICIDES” (Fortephest Ltd., priority 2019, published 2022).
Where a SMILES comes first, the peptide text is derived from it. [ ]: non-standard residue; d: D form. ξ: configuration not given here. ξ3Thi = NC(Cc1ccsc1)C(=O)O

Key:
[1] = system: Romaine lettuce (Lactuca sativa L.) plants; test: Post-emergency herbicidal activity on Romaine lettuce plants; format: in vivo; conditions: Romaine lettuce at stage 2 to 3 leaves; compound in 0.1% Silwet, up to 0.5%; visual evaluation vs control plants
Protocol: The tests were performed on Romaine lettuce (Lactuca sativa L.) plants at the stage 2 to 3 leaves. The plants were grown on 300 well trays packed with soil, well dimensions 2×2×5 cm. Each compound was dissolved in 0.1% water solution of agronomically acceptable surfactant Silwet to final concentrations ranging from 0.0% (Control) to 0.5%. Two weeks after the treatment the herbicidal effects of the respective test material were visually evaluated by a comparison with the control plants. In addition, the aboveground part of the plant was neatly cut and weighed (wet weight). Each test was performed on 20 to 40 plants. The degree of growth inhibition and damage was evaluated according to the parameters in Table 2. Plant development at 7, 14, and 21 DAA (days after application) were evaluated on a scale of 0 to 100, in which score 0 represents dead plants and score 100 represents healthy plants according to plant vigor, height, and leaf color. Each test included 20 to 40 plants.

[2] = system: Seeds of Lettuce R. (Super-Jericho); test: Filter paper bioassay with lettuce seeds (germination and early plant development); format: in vivo; conditions: lettuce seeds on filter paper; 1, 0.1, 0.01, 0.001 mM; radicle and shoots assessed after 6 days
Protocol: Seeds of Lettuce R. (Super-Jericho, non-sterilized) were obtained from Ben Shahar Moshe Ltd., 99% purity.
Filter Paper Bioassays with Lettuce Seeds:
The protocol is following Bertin et al. 2009 and Movellan et al. 2014 with specified modifications as described below.
Seeds were placed on Whatman no. 1 filter paper (Whatman, Middlesex, U.K.) in Petri dishes (10 seeds per plate) supplemented with 2.0 ml of water (Control) or with a solution comprising 1 mM, 0.1 mM, 0.01 mM and 0.001 mM of test material. Petri dishes with seeds were placed in a tray at an angle of 45°. The trays were kept in dark for 48 hours and then transferred to the growth chamber (22° C., 0.045 mmol×m−2×s−1 photosynthetic photon flux density; 6/18 dark/light cycle) for additional 4 days. Each experiment was performed at least in two repeats. The development of radicle and shoots of experimental and control plants were visually assessed 6 days after the beginning of the test to determine Minimal Effective Concentration (MEC) of test material. In the context of the invention, MEC is defined as the lowest concentration level of a test material that caused deviation (absence of germination or malformation of radicle and shoots) from the plant's development in the Control group.

Row | SMILES | post-emergency herbicidal activity (Activity Index: plant's development vs Control) [1] | Minimal Effective Concentration (MEC) as activity score, seeds germination & early plants development [2]
1 | NC(Cc1cccs1)C(=O)O (centres unmarked) [Code 501] | Strong (From 25 to 50) | Maximal (0.01 mM and less)
2 | NC(Cc1ccsc1)C(=O)O (centres unmarked) [Code 502] | Very Strong (From 15 to 25) | Maximal (0.01 mM and less)
3 | NC(CNS(=O)(=O)c1ccsc1)C(=O)O (centres unmarked) [Code 504] | Weak (More than 75) | Weak (More than 1 mM)
4 | NC(CNS(=O)(=O)c1cscc1F)C(=O)O (centres unmarked) [Code 506] | Weak (More than 75) | Weak (More than 1 mM)
5 | COC(=O)C(N)CNS(=O)(=O)c1ccsc1 (centres unmarked) [Code 507] | Weak (More than 75) | Weak (More than 1 mM)
6 | N#Cc1cc(C[C@H](N)C(=O)O)cs1 [Code 509] | Maximal (Less than 15) | Strong (0.1 mM)
7 | NC(Cc1cc(C(F)(F)F)cs1)C(=O)O (centres unmarked) [Code 510] | Strong (From 25 to 50) | 
8 | NC(CC(=O)O)c1cscc1Br (centres unmarked) [Code 511] | Weak (More than 75) | Weak (More than 1 mM)
9 | Cc1sc(C)c(CC(N)C(=O)O)c1C (centres unmarked) [Code 512] | Weak (More than 75) | Weak (More than 1 mM)
10 | CCCCOC(=O)C(N)Cc1ccsc1 (centres unmarked) [Code 513] | Very Strong (From 15 to 25) | Strong (0.1 mM)
11 | NC(CNS(=O)(=O)c1cc(Cl)sc1Cl)C(=O)O (centres unmarked) [Code 514] | Weak (More than 75) | Weak (More than 1 mM)
12 | Cc1c(Cl)sc(Cl)c1S(=O)(=O)NCC(N)C(=O)O (centres unmarked) [Code 515] | Weak (More than 75) | Weak (More than 1 mM)
13 | NC(Cc1ccsc1Cl)C(=O)O (centres unmarked) [Code 516] | Maximal (Less than 15) | Maximal (0.01 mM and less)
14 | NC(Cc1csc(Cl)c1)C(=O)O (centres unmarked) [Code 518] | Strong (From 25 to 50) | 
15 | NC(CC1=NCSC1)C(=O)O (centres unmarked) [Code 519] | Moderate (From 50 to 75) | Maximal (0.01 mM and less)
16 | NC(Cc1cncs1)C(=O)O (centres unmarked) [Code 520] | Weak (More than 75) | Strong (0.1 mM)
17 | NC(CNS(=O)(=O)c1c(Cl)sc(Cl)c1C(F)(F)F)C(=O)O (centres unmarked) [Code 521] | Weak (More than 75) | Weak (More than 1 mM)
18 | Nc1nc(CC(N)C(=O)O)cs1 (centres unmarked) [Code 522] | Weak (More than 75) | Weak (More than 1 mM)
19 | COC(=O)C(N)CNS(=O)(=O)c1cc(Cl)sc1Cl (centres unmarked) [Code 523] | Weak (More than 75) | Weak (More than 1 mM)
20 | CCOC(=O)C(N)CNS(=O)(=O)c1cc(Cl)sc1Cl (centres unmarked) [Code 524] | Weak (More than 75) | Weak (More than 1 mM)
21 | CCCOCCOC(=O)C(N)CNS(=O)(=O)c1cc(Cl)sc1Cl (centres unmarked) [Code 525] | Weak (More than 75) | Weak (More than 1 mM)
22 | CCOC(=O)C(CN(C(=O)O)S(=O)(=O)c1cc(Cl)sc1Cl)NC(=O)O (centres unmarked) [Code 526] | Weak (More than 75) | Weak (More than 1 mM)
23 | NC(Cc1nc(Cl)sc1Cl)C(=O)O (centres unmarked) [Code 527] | Maximal (Less than 15) | Moderate (1 mM)
24 | NC(Cc1ncsc1Cl)C(=O)O (centres unmarked) [Code 528] | Weak (More than 75) | Moderate (1 mM)

Row | SMILES | post-emergency herbicidal activity (Activity Index: plant's development vs Control) [1] | Minimal Effective Concentration (MEC) as activity score, seeds germination & early plants development [2]
25 | NC(Cc1cnsn1)C(=O)O (centres unmarked) [Code 529] | Moderate (From 50 to 75) | Strong (0.1 mM)
26 | NC(Cc1ncns1)C(=O)O (centres unmarked) [Code 532] | Moderate (From 50 to 75) | Strong (0.1 mM)
27 | NC(Cc1ccoc1)C(=O)O (centres unmarked) [Code 534] | Strong (From 25 to 50) | Moderate (1 mM)
28 | NC(Cc1cocn1)C(=O)O (centres unmarked) [Code 542] | Weak (More than 75) | Weak (More than 1 mM)
29 | O=CNC(Cc1ccsc1)C(=O)O (centres unmarked) [Code 545] | Weak (More than 75) | Weak (More than 1 mM)
30 | COC(=O)C(N)Cc1ccsc1 (centres unmarked) [Code 546] | Very Strong (From 15 to 25) | Maximal (0.01 mM and less)
31 | CCOC(=O)C(N)Cc1ccsc1 (centres unmarked) [Code 547] | Very Strong (From 15 to 25) | Maximal (0.01 mM and less)
32 | NC(Cc1ccsc1)C(=O)NCC(=O)O (centres unmarked) [Code 548] (H-[ξ3Thi]-Gly-OH) | Strong (From 25 to 50) | 
33 | NC(Cc1ccsc1)C(=O)NCCOCCO (centres unmarked) [Code 549] | Weak (More than 75) | Weak (More than 1 mM)
34 | CCCC(=O)NC(Cc1nc(Cl)sc1Cl)C(=O)OCC (centres unmarked) [Code 550] | Maximal (Less than 15) | 
35 | CCCCOCCOC(=O)C(Cc1nc(Cl)sc1Cl)NC(C)=O (centres unmarked) [Code 551] | Maximal (Less than 15) | 
36 | CCCCOC(=O)C(Cc1nc(Cl)sc1Cl)NC(C)=O (centres unmarked) [Code 554] | Maximal (Less than 15) | 
37 | Cc1sc(Cl)cc1CC(N)C(=O)O (centres unmarked) [Code 559] | Moderate (From 50 to 75) | 
38 | NC(Cc1ccsc1Br)C(=O)O (centres unmarked) [Code 560] | Strong (From 25 to 50) | 
39 | COC(=O)C(N)Cc1cc(Cl)sc1Cl (centres unmarked) [Code 568] | Maximal (Less than 15) | 
40 | Cl.NC(Cc1n[nH]c2ccccc12)C(=O)O (centres unmarked) [Code 599] |  | Maximal (0.01 mM and less)
41 | Cn1cnnc1CC(N)C(=O)O (centres unmarked) [Code 717] | Weak (More than 75) | 
42 | Cl.Cl.Cn1ncnc1CC(N)C(=O)O (centres unmarked) [Code 770] | Weak (More than 75) | 
43 | Cl.Cn1cc(CC(N)C(=O)O)nn1 (centres unmarked) [Code 771] | Weak (More than 75) | 
44 | Cl.Cn1nnc(CC(N)C(=O)O)n1 (centres unmarked) [Code 772] | Moderate (From 50 to 75) | 
45 | Cc1nnc(CC(N)C(=O)O)n1C.Cl (centres unmarked) [Code 773] | Weak (More than 75) | 
46 | N[C@@H](Cc1cn[nH]c1C(F)(F)F)C(=O)O [Code 774] | Very Strong (From 15 to 25) | 
47 | CCCCOCCOCCOC(=O)C(N)Cc1cn[nH]n1 (centres unmarked) [Code 775] | Maximal (Less than 15) | 
